Laboratory results from PubChem BioAssay AID2252 (Southern Research Specialized Biocontainment Screening …, 2010).

tested on: THP-1 viability, CellTiter-Glo luminescence, 72 h; assay: PubChem AID 2252

Compound	EC50
CCCCn1c(NCc2ccccc2NS(=O)(=O)c2ccc(C)cc2)nc2ccccc21	24.3 µM
CSc1nnc(-c2cccc(NC(=S)NN)c2)o1	< 0.1 µM
Cc1nonc1C(=O)N/N=C/c1ccc([N+](=O)[O-])o1	40.7 µM
Cc1ccc2c(c1)N/C(=C(\C=C(/Cl)[N+](=O)[O-])[N+](=O)[O-])N2	26.8 µM
O=C(N/N=C/c1cc([N+](=O)[O-])ccc1O)C(O)(c1ccccc1)c1ccccc1	11.8 µM
O=C1c2ccccc2C(=O)N1CCCP(=O)(O)CCc1ccccc1	< 0.1 µM
Cc1cccc2c1Sc1ccc(Cl)cc1CC2N1CCNCC1 (stereo not given)	6.59 µM
OCCNc1nc(Nc2ccccc2)nc2ccccc12	3.06 µM
COc1cc(CNc2ccc(N3CCN(C(C)=O)CC3)cc2)ccc1OCc1ccccc1	6.5 µM
COc1cccc(/C=N/NC(=O)CNC(=O)CCc2ccccc2)c1O	21.7 µM
O=C(Oc1c(Cl)cc(Cl)c2cccnc12)c1cccc([N+](=O)[O-])c1	14.6 µM
CO[C@H]1C=CO[C@@]2(C)Oc3c(C)c(O)c4c(O)c(c(C=NN5CCN(C)CC5)c(O)c4c3C2=O)NC(=O)C(C)=CC=C[C@H](C)[C@H](O)[C@@H](C)[C@@H](O)[C@@H](C)[C@H](OC(C)=O)[C@@H]1C	42.4 µM
COc1nccnc1NS(=O)(=O)c1ccc(N=Cc2c(C)[nH]n(-c3ccc(C)c(C)c3)c2=O)cc1	14.4 µM
CCCCCCC[N+](CC)(CC)CCCCc1ccc(Cl)cc1	3.22 µM
CCc1cccc(NC(=O)CSC2=NS(=O)(=O)c3ccccc32)c1	15.6 µM
CCOc1ccc(N2C(=O)CN(O)C=C3N=c4ccccc4=C32)cc1	39.3 µM
O=C(N/N=C/c1ccccc1O)c1ccncc1	15.2 µM
COc1cc(C(=O)O/N=C2\C=CC(=O)C(C)=C2)cc(OC)c1OC	7.36 µM
O=C(NC1CCCCC1)c1ccc([N+](=O)[O-])o1	9.5 µM
Cc1ccc(C)c(NC(=O)CCC(=O)N/N=C/c2cc([N+](=O)[O-])ccc2O)c1	17.9 µM
COc1ccc(NC(=O)CC2Sc3ncnn3C2=O)cc1 (stereo not given)	46.5 µM
Clc1cc(Br)ccc1OCCCNCc1ccccc1	14.7 µM
Cc1ccc2sc(N(CCCN(C)C)C(=O)c3ccc(Br)s3)nc2c1C	21.2 µM

Compound	EC50
COc1ccccc1N1CCN(Cc2ccc(O)c3ncccc23)CC1	2.61 µM
CC(C)N=C(N)N=C(N)Nc1ccc(Cl)cc1	35.1 µM
Cc1ccc(OCC(=O)N/N=C\c2c(C)[nH]n(-c3ccccc3)c2=O)c([N+](=O)[O-])c1	6.86 µM
CCOc1ccc(Nc2nc(N)c3ccccc3n2)cc1	6.96 µM
COc1cccc(/C=N/NC(=O)CNC(=O)COc2cccc(C)c2)c1O	9.52 µM
C=C(C)COc1ccc2c(C)c(CCC(=O)NC3CC3)c(=O)oc2c1	< 0.1 µM
Brc1ccc2c(c1)C(OC1CN3CCC1CC3)c1ccccc1CS2 (stereo not given)	8.31 µM
CN(C)CCCN(C(=O)c1ccc2c(c1)CCCC2)c1nc2ccc(Cl)cc2s1	9.82 µM
NC1=NC2=C(CCCC2)C2(CCCCC2)S1	37.4 µM
C#CCOCCOCCOCCNc1nc(N2CCN(C(=O)CCCCCCCCCCNC(=O)[C@H]([C@@H](C)CC)n3cc(CCCCCN)nn3)CC2)nc(N2CCN(C(=O)CCCCCCCCCCNC(=O)[C@@H]([C@H](C)O)n3cc(C)nn3)CC2)n1	13 µM
CSc1ccc2c(c1)C(N1CCN(C)CC1)Cc1ccc(F)cc1S2 (stereo not given)	5.63 µM
CCCOc1ccc(C(=O)NNC(=S)NC(C)=O)cc1	5.29 µM
NC1=NC[C@H](Cc2ccc(O)cc2)N1CCC12CC3CC(CC(C3)C1)C2	13.2 µM
Nc1nc(Nc2ccc(Cl)cc2)nc2ccccc12	6.06 µM
Cc1cnc(C(=O)Nc2nnc(C)s2)cn1	< 0.1 µM
S=C1SCN(Cc2cccnc2)CN1Cc1cccnc1	3.92 µM
Fc1ccc([C@@H]2CCNC[C@H]2COc2ccc3c(c2)OCO3)cc1	7.59 µM
O=C(N/N=C/c1ccc([N+](=O)[O-])s1)c1ccccc1Br	15.2 µM
O=C(CCc1ccccc1)NNC(=O)c1ccccn1	18.2 µM
CCCCCOc1ccc(CSC(=N)N)cc1[N+](=O)[O-]	14 µM
Cc1ccccc1C(=O)N/N=C/c1ccc([N+](=O)[O-])s1	16.8 µM
Fc1ccc(NC(=S)Nc2cc(-c3ccccc3)[nH]n2)cc1Cl	41.9 µM
Cc1cc(C)nc(/N=C(\N)Nc2ccc(SC(F)F)cc2)n1	12.8 µM

Compound	EC50
Clc1ccc(C(c2ccc(Cl)cc2)n2cc[n+](CC(OCc3ccc(Cl)cc3Cl)c3ccc(Cl)cc3Cl)c2)cc1 (stereo not given)	1.45 µM
CCOC(=O)c1cc(-c2ccc(F)cc2)n(CCC(=O)NC2CCN(Cc3ccccc3)CC2)c1C	18.9 µM
CCN(CC)c1ccc(/C=N/NC(=O)c2ccc3nc[nH]c3c2)c(O)c1	0.9 µM
COc1ccc(Nc2cc(C)nc(NCc3ccccc3)n2)cc1	4.79 µM
NC1=NC[C@@H](Cc2ccc(O)cc2)N1CCCCC1CCCCC1	6.98 µM
Cn1c(-c2ccc(Cl)cc2)cnc1N	33.8 µM
O=C(CN1CC(c2ccccc2)CC1=O)N/N=C/c1cc(Br)ccc1O (stereo not given)	3.85 µM
Cc1ccc(-c2nc(C(=O)NCCCN(C)C)cc3c2[nH]c2ccccc23)cc1	10.7 µM
COc1cccc(Nc2nc(NCC3CCCO3)c3ccccc3n2)c1 (stereo not given)	2.27 µM
CN(CC(=O)Nc1ccc(F)c(F)c1F)c1cnccn1	19.6 µM
CNCCCN1c2ccccc2CCc2ccccc21	40.4 µM
CN(C)CC/C=C1/c2cc(F)ccc2Sc2ccc(Cl)cc21	20.5 µM
CCC(O)(CC)C(=O)N/N=C/c1cc(Br)cc(Br)c1O	15.4 µM
CN(C)CCCNc1cc(C(C)(C)C)nc2c(-c3ccc(Cl)cc3)cnn12	7.99 µM
COc1ccc(CNCCc2ccc(Cl)cc2)cc1OCc1ccccc1	24.5 µM
CCCCCCCCCC[N+](C)(C)CC/C=C1/c2ccccc2Sc2ccc(Cl)cc21	1.99 µM
CC1CCC(C(C)C)C(OC(=O)Cn2c(COc3ccccc3)[n+](C)c3ccccc32)C1 (stereo not given)	2.37 µM
Cn1c(-c2ccc3c(c2)OCO3)cnc1NCc1ccc(Cl)cc1	28.8 µM
Cc1cc(NC2CCCCC2)nc(NCc2ccccc2)n1	14.9 µM
COc1ccc(N2C3=C(CC4=C2CC(C)(C)CC4=O)C(=O)CC(C)(C)C3)cc1	7.53 µM
Cc1ccc(NC(=O)COc2ccccc2CNC(C)(C)CC(C)(C)C)cc1	9.23 µM
N=c1n(Cc2ccc(Cl)cc2)c2ccccc2n1CC(O)COc1ccccc1 (stereo not given)	5.39 µM
CCCCn1c(NS(=O)(=O)c2ccccc2)c(S(=O)(=O)c2ccc(C)cc2)c2nc3ccccc3nc21	12 µM

Compound	EC50
Oc1ccc(CN2CCN(c3ccccc3)CC2)c2cccnc12	5.88 µM
NC1=NC[C@H](Cc2ccc(O)cc2)N1CCCCC1CCCCC1	1.73 µM
Oc1ccc(C[C@@H]2CNCCN2CCCCC2CCCCC2)cc1	8.53 µM
N=c1n(CC(=O)c2ccc(Br)s2)c2ccccc2n1Cc1ccccc1	4.4 µM
COc1ccc(Nc2c3c(nc4ccc(C)cc24)CCC3)cc1	19 µM
O=C(NC(=S)NNC(=O)c1cccs1)c1ccc(Br)o1	27.5 µM
Cc1cc(=O)oc2ccc(OCC(=O)N3CCC(C)CC3)cc12	< 0.1 µM
CN1CCN(c2ccc(NC(=O)c3ccc(-c4ccc(Br)cc4)o3)cc2)CC1	7.84 µM
COc1cc(/C=N/N=C(N)N)ccc1OCc1ccc(Cl)cc1	7.26 µM
O=C(Nc1nnc(-c2ccco2)o1)c1cccc(Cl)c1	21.1 µM
ON=C1/C(=N\O)CC2(C/C1=N/O)OCCO2	33.2 µM
COc1cccc(F)c1C(C[N+](=O)[O-])c1c(N)n(C)c(=O)n(C)c1=O (stereo not given)	6.05 µM
Cc1oc(/N=C/c2ccc(O)cc2O)c(C#N)c1C	< 0.1 µM
O=C(/C=C/c1ccc(F)cc1)NC(=S)NNC(=O)c1cnccn1	6.17 µM
O=C1C2=C(Nc3ccccc3SC2c2ccco2)c2ccccc21 (stereo not given)	23.6 µM
NC1=NC[C@H](Cc2ccc(O)cc2)N1CCc1cccc2ccccc12	32.7 µM
Nc1nonc1-n1nnc(C(=O)N/N=C/c2ccccc2O)c1CN1CCCC1	8.87 µM
Clc1cccc(CN2CCc3c([nH]c4ccccc34)C2)c1Cl	8.82 µM
Cc1ccc(NC(=O)c2ccc([N+](=O)[O-])o2)c(C)c1	12.1 µM
Cc1ccc(N=Cc2cc(Br)cc(Cl)c2O)cc1	49.5 µM
CN(C)CCOCCOc1ccc(Cl)c2ccccc12	48.3 µM
CC[C@@H](C)[C@H](CN[C@H](CNC)C(C)C)NC[C@@H](C)c1ccc(CC(C)C)cc1	5.96 µM
OCCCCNCc1ccc(OCc2ccccc2Cl)cc1	34.6 µM

Compound	EC50
CN(C)CCCNC(=S)NCC(c1ccc(Cl)cc1Cl)c1c[nH]c2ccccc12 (stereo not given)	3.66 µM
c1ccc(CN2CCN(c3ncnc4c3[nH]c3ccccc34)CC2)cc1	20 µM
Oc1ccccc1-c1cc(C(F)(F)C(F)F)[nH]n1	46.4 µM
CCCNC1=C(C)C(=O)C2=C(C1=O)C(COC(N)=O)[C@]1(OC)C3NC3CN21 (stereo not given in full)	8.84 µM
Cc1cc(C(C)(C)CC(C)(C)C)ccc1OCCOCC[N+](C)(C)Cc1ccccc1	1.18 µM
COc1c(N2CCN(C(=S)NCc3ccccc3)C(C)C2)c(F)cc2c(=O)c(C(=O)O)cn(C3CC3)c12 (stereo not given)	17.9 µM
CCOc1cc(CNC(C)(C)CO)cc(Br)c1OCc1ccc(Cl)cc1Cl	5.53 µM
O=C1c2ccccc2NC(c2ccc(-c3ccc(Br)cc3)o2)N1O (stereo not given)	10.6 µM
Cc1[nH]c2ccccc2c1/C=C/c1nc2ccccc2c(=O)[nH]1	14 µM
O=C(NNC(=S)NC(=O)c1ccco1)c1ccc(F)cc1	9.47 µM
COc1ccc2nc(Nc3ccccc3)sc2c1	< 0.1 µM
COc1cc2c(cc1O)[C@H](Cc1ccc(Oc3cc(C[C@@H]4NCCc5cc(OC)c(O)cc54)ccc3O)cc1)NCC2	48.3 µM
Cc1nnc(N/N=C/c2ccccn2)[nH]c1=O	1.62 µM
N#C/C(=C\c1ccc(O)c(O)c1)C(=O)NCc1ccccc1	27.1 µM
COc1cc(Br)cc(C=Nc2cccc(C(F)(F)F)c2)c1O	50 µM
Cc1ccccc1S(=O)(=O)NNC(=O)C(=O)NNc1ccccn1	24.2 µM
CN1CCN(C2=Cc3cc(Cl)ccc3Sc3cc(F)ccc32)CC1	13.4 µM
COc1ccc(C(=O)NC(=S)NNC(=O)CCc2ccccc2)cc1	6.09 µM
Cn1c(=O)c2c(nc(Br)n2CCSc2nc3ccccc3o2)n(C)c1=O	< 0.1 µM
COc1ccc2[nH]c3c(C)c4ccncc4c(C)c3c2c1	1.45 µM
Cc1cccc(Nc2cc(C)c3c(O)cccc3n2)c1C	5.35 µM
COc1ccc(C(=O)Nc2cc3c(cc2OC)CCCC3)cc1Br	< 0.1 µM
Oc1ccccc1C(Nc1nccs1)c1ccc2cccnc2c1O (stereo not given)	2.11 µM
